This is an account of results in PubChem BioAssay (NCI).

Molecules are shown by their SMILES.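 Compound exposure: 48 hours, 5 concentrations, 96-well plates. GI50 = concentration required for 50% inhibition of growth. At the TGI there is no net growth.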 A value given as a limit tells only on which side of the number the result lay.

Holding throughout (test): inhibition of tumour cell growth, NCI panel, 48 h
For assay [1], the system named is A498 renal.
Assay [2] has as its system A549 NSCLC.
Assay [3] has as its system ACHN renal.
Assay [4] relates to MCF7 breast.
The test system of assay [5] is OVCAR-8 ovarian.
Assay [6] deals with SR leukemia.
The test system of assay [7] is TK-10 renal.
Assay [8] deals with U251 CNS.
For assay [9], the system named is UACC-62 melanoma.
The test system of assay [10] is UO-31 renal.

Regarding `C[C@]12CC[C@H]3[C@@H](CCC4=CC(=O)CC[C@@H]43)[C@@H]1CC[C@@H]2OC1(O)C(=O)c2ccccc2C1=O`, the TGI in assay [1] is above 100 µM; in assay [2], above 100 µM; in assay [3], 79.4 µM; in [4], above 100 µM; in assay [5], above 100 µM; in [6] it was above 100 µM. Moreover, the TGI in assay [7] was above 100 µM; in [8] it was above 100 µM; in assay [9], 33.6 µM; in [10], 78.3 µM.

Consider `c1ccc(-c2nc(Nc3ccc(-c4nc5ccccc5[nH]4)cc3)nc(N3CCOCC3)n2)cc1`, for which the GI50 is 1.09 µM in [1]; 1.95 µM in [2]; 1.25 µM in assay [3]; 0.877 µM in assay [4]; 1.72 µM in assay [5]; 0.125 µM in assay [6]. In addition, the GI50 in assay [7] is 2.15 µM; in assay [8], 0.535 µM; in assay [9], 1.66 µM; in assay [10], 1.32 µM. Moreover, the TGI in [1] amounted to 2.62 µM; in assay [2] it was 4.01 µM; in assay [3], 2.74 µM; in [4], 2.85 µM; in assay [5], 3.41 µM; in assay [6], 0.555 µM. The TGI came out at 3.76 µM in assay [7], 1.76 µM in assay [8], 3.48 µM in assay [9] and 2.91 µM in assay [10].

In the case of `Cn1c2ccccc2c2c(=O)n(CCCC(=O)NCC(=O)OC(=NC3CCCCC3)NC3CCCCC3)c3c(-c4ccccc4)nnn3c21`, the GI50 in assay [1] is 30.6 µM; in [2] it was 38 µM; in assay [3], 26.3 µM; in [4] it was 3.62 µM; in assay [5], 7.37 µM; in assay [6] it was 3.04 µM. The GI50 in assay [7] is above 100 µM; in [8] it was 12.4 µM; in assay [9], 25.8 µM; in assay [10], 31.3 µM. Further, the TGI is above 100 µM in [1]; above 100 µM in [2]; above 100 µM in [3]; above 100 µM in assay [4]; above 100 µM in assay [5]; 5.09 µM in assay [6]. Also, the TGI in assay [7] is above 100 µM; in [8], 38.3 µM; in assay [9], above 100 µM; in [10], above 100 µM.

In the case of `Cc1cccc2c3c(sc12)C(c1ccc(Cl)cc1)C(C#N)=C(/N=C/c1ccc(Cl)cc1)O3` (stereo not given), the GI50 was 0.0748 µM in assay [1]; 0.489 µM in assay [2]; 0.858 µM in assay [3]; 0.301 µM in assay [4]; 0.46 µM in [5]; 0.36 µM in [6]. The GI50 is 12.2 µM in assay [7], 0.443 µM in [8], 0.337 µM in [9] and 0.653 µM in [10]. The TGI in assay [1] was 0.953 µM; in assay [2] it was above 100 µM; in assay [3], above 100 µM; in assay [4], above 100 µM; in assay [5], above 100 µM; in assay [6], above 34.9 µM. The TGI in assay [7] was 51.3 µM; in assay [8], 21.3 µM; in assay [9] it was 12.7 µM; in [10], above 100 µM.

As to `S=C(Nc1ccccc1)c1ccccn1`, the GI50 in [1] is above 100 µM; in assay [2] it was above 100 µM; in assay [3], 50.6 µM; in assay [4] it was above 100 µM; in assay [5], 75.3 µM; in [6], 25.5 µM. Further, the GI50 was above 100 µM in assay [7], 38 µM in [8], 70.7 µM in assay [9] and 25.5 µM in [10]. In addition, the TGI in assay [1], in assay [2], in assay [3], in assay [4], in assay [5] and in assay [6] was above 100 µM in each case. Further, the TGI in [7], in assay [8], in assay [9] and in assay [10] was above 100 µM each time.

For the compound `COc1ccc(/C=C/C(=O)c2ccc(Nc3ncnc4ccccc34)cc2)cc1OC`, the GI50 was 8.97 µM in [1]; 3.66 µM in assay [2]; 13.6 µM in assay [3]; 2.43 µM in assay [4]; 7.03 µM in [5]; 2.04 µM in [6]. Moreover, the GI50 is 8.29 µM in assay [7], 3.66 µM in assay [8], 10.7 µM in assay [9] and 4.57 µM in assay [10]. For the same compound, the TGI in assay [1] was above 100 µM; in assay [2] it was above 100 µM; in assay [3], above 100 µM; in [4], 14.3 µM; in assay [5] it was 57.2 µM; in [6], 6.36 µM. Besides, the TGI is 62.9 µM in assay [7], above 100 µM in [8], 27.9 µM in assay [9] and 68.3 µM in [10].

Consider `C#Cc1cccc(NC(=O)Nc2ccc(NC(=O)CCl)cc2)c1`, for which the GI50 was above 82.5 µM in assay [1]; above 82.5 µM in assay [2]; 14 µM in [3]; 27.8 µM in assay [4]; 22.5 µM in assay [5]; 9.79 µM in assay [6]. The GI50 in assay [7] is 21.8 µM; in assay [8], 15.1 µM; in [9] it was 17.4 µM; in [10] it was 12.2 µM. For the same compound, the TGI in [1] was above 82.5 µM; in assay [2], above 82.5 µM; in [3], 26 µM; in assay [4], above 82.5 µM; in assay [5], above 82.5 µM; in [6], 26.7 µM. For the same compound, the TGI was above 82.5 µM in [7], 35.2 µM in assay [8], 61 µM in assay [9] and 23.3 µM in [10].
